Where “and” joins values, the source holds several entries; their conditions need not be identical. Equal values may be shown once. Read-outs that look alike come from different tables or passages of the source.
Experiments:
mouse hepatocytes = test: Hepatocyte stability; type: in vitro ADME; details: well-stirred model
[1] = Systemic clearance and pharmacokinetics after i.v. dose in C57BL/6 mice aging 2 months; type: in vivo, mouse; details: male, iv; for clearance / AUC(0-inf) / half-life / MRT inf / Vd: C57BL/6, mouse, plasma; for clearance: read-out: Cl p (converted); for MRT inf: read-out: MRT 0-∞; for Vd: read-out: Vd ss; for CL renal: mouse, urine and plasma, C57BL/6 mice, urine 0–24 h, read-out: Total Cl renal (converted)
Method: (§1) Male C57BL/6 and Bile duct-cannulated (BDC) mice (2 months, weighting: 25–30 g) obtained from Charles River, Inc. (Raleigh, NC) were used to study systemic clearance mechanism, in line with in vitro commercial samples from adolescent animals. Mice were fasted overnight and throughout the duration of the study ([…]), whereas access to water was provided ad libitum. SLOH and SLM were administered i.v. in PBS containing 5% DMSO via the tail vein (n = 5) at different dosages in a dosing volume of 5 mL/kg. Serial blood samples were collected before dosing and at 0.083, 0.167, 0.25, 0.5, 1, 2, 4, 8, 12 and 24 hours after dosing. Urine samples (0–12 and 12–24 hours; pooled 0–24 hours) were also collected after i.v. administration (1 mg/kg). Bile samples were collected at intervals of 0–4, 4–8 and 8–24 hours (pooled 0–24 hours) after dosing (1 mg/kg) to BDC mice.
(§2) Parameters in animals were determined using non-compartmental analysis. […] Systemic Cl p was calculated as the i.v. dose divided by AUC0−∞ ^iv. The terminal rate constant (K el) was calculated by a linear regression of the log-linear concentration-time curve, and the terminal elimination t 1/2 was calculated as 0.693 divided by K el. Mean residence time from t = 0 to infinity (MRT 0−∞) was calculated as AUMC 0−∞ divided by AUC 0−∞. Apparent steady-state distribution volume (Vd ss) was determined as Cl p multiplied by MRT 0−∞. […] The Cl bile was derived as the amount of (in milligrams) of SLM or SLOH in the bile over the 24-hour interval postdose/AUC0-24h. The influx clearance into brain (K in) was calculated by using the amount of drug in the brain (homogenate) at time t (A, brain (t)) (corrected for the amount of drug remaining in the cerebral vasculature) divided by plasma exposure up to this time point (AUC, plasma (0 − t)). The C u,brain was calculated by A brain (homogenate, ng/g brain) divided by V u,brain (mL/g brain). The unbound ISF to plasma ratio (K puu,brain) was calculated by unbound AUC 0−t of ISF (ng/mL × min) divided by unbound AUC 0–t (ng/mL × min) of plasma.

C57BL/6 mice = test: as above; type: in vivo, mouse; details: for Cl u, renal/GFR Ratio: GFR in mice 0.6 L/h per Kg; for dose dependence of kinetics: i.v. 0.2 mg/kg to 4 mg/kg in mice; for biliary clearance share of plasma clearance / remaining / hepatic clearance share of plasma clearance (Clhep/Clp) / renal clearance share of plasma clearance: mice; for Liver first pass elimination: mouse, in vivo; for Cl u, renal: total Cl renal normalised with unbound free fraction in blood
Method: as §1, §2

[2] = 1 mg/kg, C57BL/6 mice 2 months, i.v. 1 mg/kg

Compound	Hepatocyte scaled Cl hep (mouse hepatocytes)	clearance ([1]; 0.2 mg/kg, i.v. 0.2 mg/kg)	clearance ([1]; 0.6 mg/kg, i.v. 0.6 mg/kg)	clearance [1, 2]	clearance ([1]; 2 mg/kg, i.v. 2.0 mg/kg)	clearance ([1]; 4 mg/kg, i.v. 4.0 mg/kg)	AUC(0-inf) ([1]; i.v. 0.2 mg/kg)	half-life ([1]; i.v. 0.2 mg/kg)	MRT inf ([1]; i.v. 0.2 mg/kg)	Vd ([1]; i.v. 0.2 mg/kg)	AUC(0-inf) ([1]; i.v. 0.6 mg/kg)	half-life ([1]; i.v. 0.6 mg/kg)	MRT inf ([1]; i.v. 0.6 mg/kg)	Vd ([1]; i.v. 0.6 mg/kg)	half-life ([1]; i.v. 1.0 mg/kg)	MRT inf ([1]; i.v. 1.0 mg/kg)	Vd ([1]; i.v. 1.0 mg/kg)	half-life ([1]; i.v. 2.0 mg/kg)	MRT inf ([1]; i.v. 2.0 mg/kg)	Vd ([1]; i.v. 2.0 mg/kg)	also measured
COCCOCCn1c2ccccc2c2cc(/C=C/c3cc[n+](C)c4ccccc34)ccc21.[I-] [SLM, (E)-4-(2-(9-(2-(2-methoxyethoxy)ethyl)-9H-carbazol-3-yl)-vinyl)-1-methyl-quinolin-1-iumiodide]	8.67 ± 1.67 mL/min/kg	14.8 mL/min/kg	15.5 mL/min/kg	~11.8 mL/min/kg	12.5 mL/min/kg	13.8 mL/min/kg	240 ± 74 ng·h/mL	6.4 ± 4 h	3.5 ± 0.95 h	1.5 ± 0.63 L/kg	580 ± 170 ng·h/mL	6 ± 1.1 h	3.7 ± 0.86 h	2.1 ± 0.54 L/kg	9.3 ± 3.3 h	3.2 ± 1 h	2.2 ± 0.61 L/kg	7.1 ± 0.55 h	2.5 ± 0.18 h	1.7 ± 0.55 L/kg	half-life ([1]; i.v. 4.0 mg/kg): 6.5 ± 2 h; MRT inf ([1]; i.v. 4.0 mg/kg): 3 ± 0.52 h; Vd ([1]; i.v. 4.0 mg/kg): 2.1 ± 0.2 L/kg; CL renal ([1]; i.v. 1 mg/kg): 0.667 mL/min/kg; Cl u, renal/GFR Ratio (C57BL/6 mice): 1.90 ± 0.390; dose dependence of kinetics (C57BL/6 mice): linearity kinetics dependent on dose; biliary clearance share of plasma clearance (C57BL/6 mice): 38.0%; remaining / hepatic clearance share of plasma clearance (Clhep/Clp) (C57BL/6 mice): 58.0%; renal clearance share of plasma clearance (C57BL/6 mice): 4.50%; Liver first pass elimination (C57BL/6 mice): 16.0 % liver blood flow; Cl u, renal (C57BL/6 mice): 1.10 L/h per Kg and 1.10 ± 0.230 L/h per Kg
COCCOCCn1c2ccccc2c2cc(/C=C/c3cc[n+](CCO)c4ccccc34)ccc21 [SLOH, (E)-1-(2-hydroxyethyl)-4-(2-(9-(2-(2-metho-xyethoxy)-ethyl)-9H-carbazol-3-yl)vinyl) quinolin-1-ium chloride]	9.67 ± 1.67 mL/min/kg	15.5 mL/min/kg	12.8 mL/min/kg	~10.2 mL/min/kg	10.7 mL/min/kg	11.8 mL/min/kg	220 ± 61 ng·h/mL	6.9 ± 3.7 h	2.7 ± 1.5 h	1 ± 0.33 L/kg	860 ± 310 ng·h/mL	5.5 ± 1.1 h	2.3 ± 0.78 h	1.2 ± 0.58 L/kg	5.8 ± 0.16 h	1.8 ± 0.1 h	0.83 ± 0.43 L/kg	4.6 ± 0.76 h	1.8 ± 0.17 h	1 ± 0.36 L/kg	half-life ([1]; i.v. 4.0 mg/kg): 5.8 ± 1.7 h; MRT inf ([1]; i.v. 4.0 mg/kg): 1.7 ± 0.08 h; Vd ([1]; i.v. 4.0 mg/kg): 1 ± 0.35 L/kg; CL renal ([1]; i.v. 1 mg/kg): 0.167 mL/min/kg; Cl p (C57BL/6 mice; C57BL/6 mice 2 months, i.v. 1 mg/kg, 1 mg/kg): 0.610 ± 0.140 L/h per Kg; Cl u, renal/GFR Ratio (C57BL/6 mice): 0.260 ± 0.0400^$$; dose dependence of kinetics (C57BL/6 mice): linearity kinetics dependent on dose; biliary clearance share of plasma clearance (C57BL/6 mice): 34.0%; remaining / hepatic clearance share of plasma clearance (Clhep/Clp) (C57BL/6 mice): 64.0%; renal clearance share of plasma clearance (C57BL/6 mice): 1.10%; Liver first pass elimination (C57BL/6 mice): 16.0 % liver blood flow; Cl u, renal (C57BL/6 mice): 0.160 L/h per Kg and 0.160 ± 0.0300^$$ L/h per Kg
